Data: ChEMBL document CHEMBL1133460, “Synthesis and biological evaluation of certain alpha,beta-unsaturated ketones and their corresponding fused pyridines as antiviral and cytotoxic agents” (J Med Chem, 2000)
Converted amounts (≈) assume the structure as drawn. “And” between values parts separate entries of the source, which are not always exact repeats. Equal values may be shown once. The source made the active and inactive calls. No cut-off for these calls is given here.

Experiments:
[1] = system: Panel CNS (Carcinoma cell lines); test: In vitro growth inhibitory concentration against CNS cancer cell lines; assay type: functional; conditions: Homo sapiens
[2] = system: Tumor cell line; test: In vitro for median growth inhibitory conc. against leukemia (compounds full panel MG-MID/leukemia subpanel MG-MID); assay type: functional; conditions: Homo sapiens
[3] = system: Tumor cell line; test: In vitro for median growth inhibitory concentration against prostate cancer cell lines; assay type: functional; conditions: Homo sapiens
[4] = system: Panel renal (Carcinoma cell lines); test: In vitro growth inhibitory concentration against renal cancer cell lines; assay type: functional; conditions: Homo sapiens
[5] = system: Tumor cell line; test: In vitro for median growth inhibitory concentration against non small lung cancer cell lines; assay type: functional; conditions: Homo sapiens
[6] = system: Tumor cell line; test: In vitro for median growth inhibitory concentration against colon cancer cell lines; assay type: functional; conditions: Homo sapiens
[7] = system: Tumor cell line; test: In vitro for median growth inhibitory concentration against CNS cancer cell lines; assay type: functional; conditions: Homo sapiens
[8] = system: Tumor cell line; test: In vitro for median growth inhibitory concentration against renal cancer cell lines; assay type: functional; conditions: Homo sapiens
[9] = system: Panel leukemia (Carcinoma cell lines); test: In vitro growth inhibitory concentration against leukemia tumor cell lines; assay type: functional; conditions: Homo sapiens
[10] = In vitro growth inhibitory concentration against colon cancer tumor cell lines; assay type: functional; conditions: Homo sapiens
[11] = system: Panel melanoma (Carcinoma cell lines); test: In vitro growth inhibitory concentration against melanoma cancer cell lines; assay type: functional; conditions: Homo sapiens
[12] = system: Ovarian cancer cell line; test: In vitro growth inhibitory concentration against ovarian cancer cell lines; assay type: functional; conditions: Homo sapiens
[13] = Full panel mean-graph midpoint (MG-MID).
[14] = Full panel mean-graph midpoint (MG-MID)
[15] = system: MT4; test: In vitro inhibitory activity against uninfected T4 cells; assay type: functional, cell-based; conditions: Homo sapiens
[16] = system: Breast cancer cell line; test: In vitro growth inhibitory concentration against breast cancer cell lines; assay type: functional; conditions: Homo sapiens
[17] = system: Human immunodeficiency virus 1; test: (§1) In vitro effective concentration against HIV-1 cytopathic effect in T4 cells; Inactive; assay type: functional, organism-based
[18] = system: Tumor cell line; test: In vitro for median growth inhibitory concentration against breast cancer cell lines; assay type: functional; conditions: Homo sapiens
[19] = system: Tumor cell line; test: In vitro for median growth inhibitory concentration against ovarian cancer cell lines; assay type: functional; conditions: Homo sapiens
[20] = system: Tumor cell line; test: In vitro for growth inhibitory concentration against non small lung cancer cell lines; assay type: functional; conditions: Homo sapiens
[21] = system: Panel prostate (Carcinoma cell lines); test: In vitro growth inhibitory concentration against prostate cancer cell lines; assay type: functional; conditions: Homo sapiens
[22] = system: Tumor cell line; test: In vitro for median growth inhibitory concentration against melanoma cell lines; assay type: functional; conditions: Homo sapiens
[23] = system: Panel melanoma (Carcinoma cell lines); test: In vitro median growth inhibitory concentration against melanoma cell lines; assay type: functional; conditions: Homo sapiens
[24] = system: Human alphaherpesvirus 1; test: 50% loss of the monolayer present around the viral plaques in uM; assay type: functional, organism-based
[25] = system: Human alphaherpesvirus 1; test: concentration caused 50% loss of the monolayer present around the viral plaques in ug/mL.; assay type: functional, organism-based
[26] = In vitro median growth inhibitory concentration against colon cancer cell lines; assay type: functional; conditions: Homo sapiens
[27] = species: Homo sapiens; test: Selectivity ratio between the full panel MG-MID and leukemia subpanel MG-MID was determined.; assay type: functional
[28] = system: Panel renal (Carcinoma cell lines); test: In vitro median growth inhibitory concentration against renal cancer cell lines; assay type: functional; conditions: Homo sapiens
[29] = system: NSCLC; test: In vitro growth inhibitory concentration against non-small-cell lung cancer; assay type: functional; conditions: Homo sapiens
[30] = system: Human alphaherpesvirus 1; test: In vitro antiviral activity against Herpes Simplex-1 virus (HSV-1) expressed as percent reduction in the number of viral plaques; assay type: functional; set-up: concentration or dose not given beside the values
[31] = system: Panel CNS (Carcinoma cell lines); test: In vitro median growth inhibitory concentration against CNS cancer cell lines; assay type: functional; conditions: Homo sapiens
[32] = system: Panel prostate (Carcinoma cell lines); test: In vitro median growth inhibitory concentration against prostate cancer cell lines; assay type: functional; conditions: Homo sapiens
[33] = system: Human alphaherpesvirus 1; test: Minimum antiviral concentration proved to be lethal to viral population in ug/mL.; assay type: functional
[34] = system: Breast cancer cell line; test: In vitro median growth inhibitory concentration against breast cancer cell lines; assay type: functional; conditions: Homo sapiens
[35] = system: Panel leukemia (Carcinoma cell lines); test: In vitro median growth inhibitory conc. against leukemia was estimated.; assay type: functional; conditions: Homo sapiens
[36] = system: Ovarian cancer cell line; test: In vitro median growth inhibitory concentration against ovarian cancer cell lines; assay type: functional; conditions: Homo sapiens
[37] = system: NSCLC; test: In vitro median growth inhibitory concentration against non-small-cell lung cancer; assay type: functional; conditions: Homo sapiens
[38] = system: Human alphaherpesvirus 1; test: Minimum antiviral concentration proved to be lethal to viral population in uM; assay type: functional
[39] = In vitro effective concentration against HIV-1 cytopathic effect in T4 cells; assay type: functional, cell-based; conditions: Homo sapiens
[40] = Therapeutic index (IC50/EC50) was determined; conditions: read-out: TI50
[41] = system: Human alphaherpesvirus 1; test: Concentration which caused 50% loss of the monolayer present around the viral plaques in uM; assay type: functional, organism-based
[42] = system: Human alphaherpesvirus 1; test: Concentration which caused 50% loss of the monolayer present around the viral plaques in ug/mL.; assay type: functional, organism-based
[43] = system: Tumor cell line; test: In vitro for median growth inhibitory concentration against leukemia; assay type: functional; conditions: Homo sapiens
[44] = system: T4; test: as §1; assay type: functional, cell-based; conditions: Homo sapiens

Row | SMILES | TGI [1] [µM] | GI50 [3] [µM] | TGI [4] [µM] | GI50 [5] [µM] | GI50 [6] [µM] | GI50 [7] [µM] | GI50 [8] [µM] | TGI [9] [µM] | TGI [10] [µM] | TGI [11] [µM] | TGI [12] [µM] | MG-MID [14] | IC50 [15] [µM] | TGI [16] [µM] | EC50 [17] | GI50 [19] [µM] | TGI [20] [µM] | Reduction [30] [%] | MAC [33] [µg/mL] | MAC [38] [µM] | also measured
1 | COc1ccc(/C=C2\CN(C)CC3=C2OC(N)=C(C#N)C3c2ccc(OC)cc2)cc1 (stereo not drawn) | > 100 | 79.4 | 96.9 | 36.7 | 41.2 | 60.5 | 40.4 | 49.9 | 97.4 | 93.9 | > 100 | 85.6 µM | 30.4 | 93.8 | Not Active | 38.1 | 95.5 | – | – | – | GI50 [2]: 9.1 µM; MG-MID [13]: 33.3 µM; GI50 [18]: 48.6 µM; TGI [21]: > 100 µM; GI50 [22]: 70.7 µM
2 | CN1CC2=C(N=C(S)NC2c2cccs2)/C(=C/c2cccs2)C1 (stereo not drawn) | > 100 | – | > 100 | – | – | – | – | 69.8 | > 100 | > 100 | > 100 | 53.5 µM and 95.8 µM | 34 | 98.1 | Not Active | – | – | 27 | 0.1 | 0.29 | GI50 [23]: 60.5 µM; IC50 [24]: 0.58 µM; IC50 [25]: 0.15 µg/mL (≈ 0.417 µM); GI50 [26]: 70.5 µM; Ratio [27]: 2.4; GI50 [28]: 75 µM; TGI [29]: > 100 µM; GI50 [31]: 76.1 µM; GI50 [32]: > 100 µM; GI50 [34]: 45.1 µM; GI50 [35]: 22.4 µM; GI50 [36]: 65.5 µM; TGI [21]: > 100 µM; GI50 [37]: 67.2 µM
3 | CN1C/C(=C\c2ccncc2)C(=O)/C(=C/c2ccncc2)C1 | – | – | – | – | – | – | – | – | – | – | – | – | > 200 | – | – | – | – | – | – | – | EC50 [39]: 64.7 µM; selectivity ratio [40]: > 3.09
4 | Cc1ccc(/C=C2\CN(C)C/C(=C\c3ccc(C)cc3)C2O)cc1 | – | – | – | – | – | – | – | – | – | – | – | – | – | – | – | – | – | 82 | 0.02 | 0.06 | IC50 [41]: 0.63 µM; IC50 [42]: 0.2 µg/mL (≈ 0.626 µM)
5 | CN1CC2=C(OC(N)=C(C#N)C2c2cccs2)/C(=C/c2cccs2)C1 (stereo not drawn) | > 100 | 13.5 | 81.6 | 16.3 | 17.3 | 42.2 | 32.5 | 27.6 | 87.3 | 87 | 73.2 | 57.8 µM | 9 | 57.7 | Not Active | 25 | 75.5 | – | – | – | GI50 [2]: 3.2 µM; MG-MID [13]: 11.6 µM; TGI [18]: 27.9 µM; TGI [21]: 90.9 µM; GI50 [22]: 36.3 µM
6 | COc1ccc(/C=C2\CN(C)C/C(=C\c3ccc(OC)cc3)C2O)cc1 | – | – | – | – | – | – | – | – | – | – | – | – | – | – | – | – | – | 58 | 0.02 | 0.06 | IC50 [41]: 0.12 µM; IC50 [42]: 0.04 µg/mL (≈ 0.114 µM)
7 | CN1C/C(=C\c2cccs2)C(=O)/C(=C/c2cccs2)C1 | 82.7 | 23.9 | 70.4 | 36.5 | 23.7 | 36.6 | 24.2 | 51.6 | 72.2 | 84.1 | 81.4 | – | 15.2 | 75.4 | – | 23.5 | 90.1 | 33 | 0.1 | 3.3 | GI50 [43]: 10.6 µM; Inhibition [44]: inactive; IC50 [41]: 0.66 µM; GI50 [18]: 28.7 µM; GI50 [22]: 34.6 µM; IC50 [42]: 0.2 µg/mL (≈ 0.663 µM)
